pKi: −log10 of the molar value.
Columns and labels:
[1] = test system: Streptococcus faecalis 05045; experiment: Agar disc diffusion, zone of inhibition vs. Streptococcus faecalis 05045; assay type: cell-based; details: Enterococcus faecalis, 12.7 mm disc, 37°, overnight, read-out: Zone diameter
Description: Paper disks (12.7 mm in diameter) impregnated with an aqueous solution containing varying amounts of 2'-chloropentostatin were placed on a layer of agar containing AM-10 assay medium (Table 4) and inoculated with Streptococcus faecalis 05045. After incubation at 37° overnight the following zones of inhibition were observed: […]

[2] = molecular target: T1, adenosine deaminase (Homo sapiens, UniProt P00813); experiment: biochemical
T1 sequence (P00813 1-363): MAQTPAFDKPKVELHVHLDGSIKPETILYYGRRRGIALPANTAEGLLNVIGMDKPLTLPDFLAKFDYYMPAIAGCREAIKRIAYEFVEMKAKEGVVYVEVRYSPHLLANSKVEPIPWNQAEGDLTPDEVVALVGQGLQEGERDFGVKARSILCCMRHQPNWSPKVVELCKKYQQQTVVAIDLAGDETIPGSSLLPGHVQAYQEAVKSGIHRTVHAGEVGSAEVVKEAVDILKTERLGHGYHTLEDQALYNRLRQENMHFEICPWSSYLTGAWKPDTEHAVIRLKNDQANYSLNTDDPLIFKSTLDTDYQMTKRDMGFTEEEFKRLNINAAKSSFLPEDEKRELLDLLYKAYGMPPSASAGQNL
Description: The potency of 2'-chloropentostatin as an adenosine deaminase inhibitor was determined using the following methods. The velocity (in moles/minute/ml) of the reaction of adenosine deaminase with adenosine was measured for several concentrations of the enzyme in the presence of various concentrations of the inhibitor, 2'-chloropentostatin. The data has been plotted in FIG. 1 in the form of an Ackerman-Potter plot (see W. W. Ackerman and V. R. Potter, Proc. Soc. Exp. Biol. Med., 72:1 (1949)).
The values of Vo /Vi =2 for each curve yield the I50 for the enzyme inhibitor at each substrate concentration. These I50 values have been plotted versus substrate concentration in FIG. 3.

[3] = test system: DNA viruses, especially herpes and vaccinia viruses; details: U.S. Pat. No. 3,616,208; mammals; cited from earlier work
[4] = molecular target: T1, adenosine deaminase; details: cited from earlier work
[5] = molecular target: T1, adenosine deaminase; details: prior patents, in words; cited from earlier work

OC[C@H]1O[C@@H](n2cnc3c2N=CNC[C@H]3O)[C@H](Cl)[C@@H]1O [2'-chloropentostatin, (R)-3-(2-chloro-2deoxy-beta-D-ribofuranosyl)-3,6,7,8-tetrahydroimidazo[4,5-d][1,3]diazepin-8-ol]
zone of inhibition at 0.2 µg/mL ([1]; 0.2 μg/ml): 40 mm
zone of inhibition at 2 µg/mL ([1]; 2 μg/ml): 47 mm
zone of inhibition at 20 µg/mL ([1]; 20 μg/ml): 55 mm
zone of inhibition at 200 µg/mL ([1]; 200 μg/ml): 61 mm
zone of inhibition at 2000 µg/mL ([1]; 2000 μg/ml): 64 mm
pKi [2]: 10.00
type of inhibition of adenosine deaminase ([2]; Ackerman-Potter plot, FIG. 1): "tight-binding" or "pseudo-irreversible" inhibitor

Nc1ncnc2c1ncn2[C@@H]1O[C@H](CO)[C@@H](O)[C@@H]1O [9-(beta-D-arabinofuranosyl)adenine]
treatment of DNA viruses [3]: useful agent for the treatment of DNA viruses
biological efficacy, limitation by deamination/deactivation in vivo [4]: greatly diminished by the rapid deamination

OC[C@H]1O[C@@H](n2cnc3c2N=CNC[C@H]3O)[C@H](O)[C@@H]1O [coformycin, (R) -3-(beta-D-ribofuranosyl)-3,6,7,8-tetrahydroimidazo[4,5-d][1,3]diazepin-8-ol]
inhibition of adenosine deaminase [5]: potent inhibitors of adenosine deaminase

Source: US4713372A, “2-chloropentostatin compound having adenosine diaminase inhibitory activity” (Warner-Lambert Company, priority 1985, dated 1987)
